ChEMBL document CHEMBL4842390, “Amino-Heterocycle Tetrahydroisoquinoline CXCR4 Antagonists with Improved ADME Profiles via Late-Stage Buchwald Couplings” (ACS Med Chem Lett, 2021)
Activity calls are given as the source filed them. The calls are words filed in the database; no cut-off is given here.

What was measured:
[1] = target: C-X-C chemokine receptor type 4 (Homo sapiens, UniProt P61073); assay: Antagonist activity at CXCR4 receptor in human CCRF-CEM cells assessed as inhibition of SDF-1alpha-induced calcium release preincubated for 25 mins followed by SDF-1alpha addition and monitered for 90 sec; assay type: functional, cell-based
Sequence of C-X-C chemokine receptor type 4 (P61073 whole entry): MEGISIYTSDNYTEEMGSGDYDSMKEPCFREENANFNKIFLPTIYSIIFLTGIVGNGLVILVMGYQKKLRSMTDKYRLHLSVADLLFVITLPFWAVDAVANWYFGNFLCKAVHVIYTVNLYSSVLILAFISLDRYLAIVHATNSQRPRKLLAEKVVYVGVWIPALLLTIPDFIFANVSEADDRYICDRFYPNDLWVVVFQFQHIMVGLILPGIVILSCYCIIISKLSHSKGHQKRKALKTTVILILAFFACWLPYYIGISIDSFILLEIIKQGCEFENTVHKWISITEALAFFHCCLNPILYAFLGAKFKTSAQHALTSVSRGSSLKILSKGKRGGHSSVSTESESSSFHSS

[2] = target: Cytochrome P450 2D6 (Homo sapiens, UniProt P10635); assay: Inhibition of human recombinant CYP2D6 expressed in insect cells using AMMC as substrate preincubated for 30 mins followed by NADPH regenerating system addition and measured after 45 mins by fluorescence based assay; assay type: ADME
Sequence of Cytochrome P450 2D6 (P10635 whole entry): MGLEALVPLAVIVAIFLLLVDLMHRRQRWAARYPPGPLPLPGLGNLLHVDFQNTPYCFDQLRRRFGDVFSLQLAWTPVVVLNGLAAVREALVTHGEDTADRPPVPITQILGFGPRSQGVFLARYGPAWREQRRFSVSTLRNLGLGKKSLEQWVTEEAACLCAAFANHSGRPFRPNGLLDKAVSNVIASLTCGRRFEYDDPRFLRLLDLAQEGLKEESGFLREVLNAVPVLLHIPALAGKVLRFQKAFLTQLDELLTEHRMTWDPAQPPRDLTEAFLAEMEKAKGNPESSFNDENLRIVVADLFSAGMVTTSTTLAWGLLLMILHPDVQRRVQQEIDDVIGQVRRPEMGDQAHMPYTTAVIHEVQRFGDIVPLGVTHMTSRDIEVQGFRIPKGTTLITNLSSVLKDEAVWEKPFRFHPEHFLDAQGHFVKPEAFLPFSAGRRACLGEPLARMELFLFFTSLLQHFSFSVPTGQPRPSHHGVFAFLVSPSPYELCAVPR

[3] = cells; settings: Homo sapiens, CCRF-CEM
Description: Antagonist activity at muscarinic acetylcholine receptor in human CCRF-CEM cells assessed as inhibition of acetylcholine-induced calcium release preincubated for 25 mins followed by acetylcholine addition and monitered for 90 sec

[4] = Metabolic stability in human liver microsomes assessed as parent compound remaining incubated for 10 mins in presence of NADPH; assay type: ADME, Microsome; settings: read-out: Stabilty
[5] = Volume of distribution in CD-1 mouse at 30 mg/kg, po or at 3 mg/kg, iv by UPLC-MS/MS analysis; assay type: ADME, organism-based; settings: in vivo
[6] = Half life in CD1 mouse at 30 mg/kg, po or at 3 mg/kg, iv measured after 8 hrs by LC-MS/MS analysis; assay type: ADME, organism-based; settings: in vivo
[7] = target: T1, C-C chemokine receptor type 4 (Homo sapiens) (UniProt P51679); assay: Antagonist activity at CCR4 (unknown origin) assessed as inhibition of ligand-induced calcium flux measured upto 10 uM; assay type: functional; settings: dose microM <=10
T1 sequence (whole entry): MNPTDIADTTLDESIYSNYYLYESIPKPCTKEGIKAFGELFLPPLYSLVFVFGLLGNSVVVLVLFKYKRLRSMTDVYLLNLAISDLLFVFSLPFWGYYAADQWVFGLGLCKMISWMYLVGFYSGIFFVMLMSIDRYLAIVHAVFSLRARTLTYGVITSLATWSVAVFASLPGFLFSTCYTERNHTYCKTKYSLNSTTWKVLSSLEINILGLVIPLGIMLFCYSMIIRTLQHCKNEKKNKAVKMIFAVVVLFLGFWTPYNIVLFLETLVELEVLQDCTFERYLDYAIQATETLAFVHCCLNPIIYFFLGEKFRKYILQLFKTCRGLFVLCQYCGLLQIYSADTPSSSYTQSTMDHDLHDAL

[8] = target: C-C chemokine receptor type 5 (Homo sapiens) (UniProt P51681); assay: Antagonist activity at CCR5 (unknown origin) assessed as inhibition of ligand-induced calcium flux measured upto 10 uM; assay type: functional; settings: dose microM <=10
Sequence of C-C chemokine receptor type 5 (Homo sapiens) (P51681 whole entry, looked up): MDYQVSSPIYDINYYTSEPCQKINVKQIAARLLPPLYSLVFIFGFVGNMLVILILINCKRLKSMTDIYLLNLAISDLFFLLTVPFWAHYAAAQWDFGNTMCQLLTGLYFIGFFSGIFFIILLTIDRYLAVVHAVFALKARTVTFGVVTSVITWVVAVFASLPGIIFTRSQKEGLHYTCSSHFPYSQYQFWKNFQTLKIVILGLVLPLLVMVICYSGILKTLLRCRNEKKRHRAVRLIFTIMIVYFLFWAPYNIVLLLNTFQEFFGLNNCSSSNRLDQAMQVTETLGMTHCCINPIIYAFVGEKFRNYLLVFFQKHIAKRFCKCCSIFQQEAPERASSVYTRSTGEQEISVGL

[9] = target: T2, C-X-C chemokine receptor type 2 (Homo sapiens) (UniProt P25025); assay: Antagonist activity at CXCR2 (unknown origin) assessed as inhibition of ligand-induced calcium flux measured upto 10 uM; assay type: functional; settings: dose microM <=10
T2 sequence (whole entry): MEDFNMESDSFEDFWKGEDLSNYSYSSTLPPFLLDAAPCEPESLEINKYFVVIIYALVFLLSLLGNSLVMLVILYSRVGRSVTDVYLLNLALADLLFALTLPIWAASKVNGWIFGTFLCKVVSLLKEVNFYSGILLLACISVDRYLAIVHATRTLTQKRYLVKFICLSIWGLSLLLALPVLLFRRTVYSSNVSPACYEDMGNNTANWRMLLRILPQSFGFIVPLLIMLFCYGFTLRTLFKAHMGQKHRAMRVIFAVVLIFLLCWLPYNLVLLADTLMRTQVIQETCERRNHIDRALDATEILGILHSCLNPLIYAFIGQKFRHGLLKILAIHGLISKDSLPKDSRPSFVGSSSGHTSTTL

[10] = target: T3, C-C chemokine receptor type 6 (Homo sapiens) (UniProt P51684); assay: Antagonist activity at CCR6 (unknown origin) assessed as inhibition of ligand-induced calcium flux measured upto 10 uM; assay type: functional; settings: dose microM <=10
T3 sequence (whole entry): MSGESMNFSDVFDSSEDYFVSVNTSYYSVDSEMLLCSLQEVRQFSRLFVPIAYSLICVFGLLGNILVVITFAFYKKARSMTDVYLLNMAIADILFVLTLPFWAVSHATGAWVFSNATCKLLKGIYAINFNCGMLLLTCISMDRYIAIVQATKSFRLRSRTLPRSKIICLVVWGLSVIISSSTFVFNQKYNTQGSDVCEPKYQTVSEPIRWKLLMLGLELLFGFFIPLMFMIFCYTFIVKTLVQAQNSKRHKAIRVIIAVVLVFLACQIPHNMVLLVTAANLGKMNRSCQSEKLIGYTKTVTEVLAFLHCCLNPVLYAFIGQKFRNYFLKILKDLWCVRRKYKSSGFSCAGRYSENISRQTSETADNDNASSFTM

[11] = target: Voltage-gated inwardly rectifying potassium channel KCNH2 (Homo sapiens, UniProt Q12809); assay: Inhibition of human ERG by automated patch clamp method
Sequence of Voltage-gated inwardly rectifying potassium channel KCNH2 (Q12809 whole entry): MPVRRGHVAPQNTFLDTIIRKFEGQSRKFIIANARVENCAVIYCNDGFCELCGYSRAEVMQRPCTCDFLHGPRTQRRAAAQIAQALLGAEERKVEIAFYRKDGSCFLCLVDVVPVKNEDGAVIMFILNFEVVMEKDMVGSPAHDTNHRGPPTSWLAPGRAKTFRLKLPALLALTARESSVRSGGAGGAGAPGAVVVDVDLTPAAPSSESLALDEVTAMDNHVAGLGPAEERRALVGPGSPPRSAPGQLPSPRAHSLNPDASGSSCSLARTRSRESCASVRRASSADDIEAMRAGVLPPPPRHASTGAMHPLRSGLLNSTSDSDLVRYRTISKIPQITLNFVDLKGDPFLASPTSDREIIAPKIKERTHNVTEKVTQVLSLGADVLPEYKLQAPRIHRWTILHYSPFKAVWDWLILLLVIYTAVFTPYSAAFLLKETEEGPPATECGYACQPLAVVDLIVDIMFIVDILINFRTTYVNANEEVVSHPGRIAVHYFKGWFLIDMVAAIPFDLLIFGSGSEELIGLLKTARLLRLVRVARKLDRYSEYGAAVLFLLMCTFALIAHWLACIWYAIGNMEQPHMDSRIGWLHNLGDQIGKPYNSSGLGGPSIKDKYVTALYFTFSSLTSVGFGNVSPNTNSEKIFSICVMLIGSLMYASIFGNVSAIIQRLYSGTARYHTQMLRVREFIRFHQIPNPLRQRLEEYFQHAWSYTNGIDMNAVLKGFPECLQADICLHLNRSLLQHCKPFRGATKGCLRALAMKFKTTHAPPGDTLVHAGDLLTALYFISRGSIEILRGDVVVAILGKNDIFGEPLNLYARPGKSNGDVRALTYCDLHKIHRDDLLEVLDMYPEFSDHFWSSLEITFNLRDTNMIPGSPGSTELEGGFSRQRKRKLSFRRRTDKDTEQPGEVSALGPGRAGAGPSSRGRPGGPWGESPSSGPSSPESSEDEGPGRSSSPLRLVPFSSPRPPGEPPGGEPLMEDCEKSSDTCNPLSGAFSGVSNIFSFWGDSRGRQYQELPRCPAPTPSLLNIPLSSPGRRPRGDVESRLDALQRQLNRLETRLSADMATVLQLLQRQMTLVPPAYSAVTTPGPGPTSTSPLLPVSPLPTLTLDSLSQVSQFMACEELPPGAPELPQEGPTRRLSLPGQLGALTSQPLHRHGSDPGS

[12] = target: T4, C-X-C chemokine receptor type 3 (Homo sapiens) (UniProt P49682); assay: Antagonist activity at CXCR3 (unknown origin) assessed as inhibition of ligand-induced calcium flux measured upto 10 uM; assay type: functional; settings: dose microM <=10
T4 sequence (whole entry): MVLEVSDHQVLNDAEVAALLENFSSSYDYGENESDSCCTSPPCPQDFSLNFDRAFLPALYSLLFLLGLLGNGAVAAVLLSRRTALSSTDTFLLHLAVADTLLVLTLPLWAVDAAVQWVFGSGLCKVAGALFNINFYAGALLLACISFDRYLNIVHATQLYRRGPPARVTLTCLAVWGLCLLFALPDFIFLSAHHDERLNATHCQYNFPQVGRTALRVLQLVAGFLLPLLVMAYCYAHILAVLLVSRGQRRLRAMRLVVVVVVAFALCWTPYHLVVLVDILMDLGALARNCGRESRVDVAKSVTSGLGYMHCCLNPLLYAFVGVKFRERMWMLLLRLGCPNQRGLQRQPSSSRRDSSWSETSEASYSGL

[13] = target: T5, C-C chemokine receptor type 7 (Homo sapiens) (UniProt P32248); assay: Antagonist activity at CCR7 (unknown origin) assessed as inhibition of ligand-induced calcium flux measured upto 10 uM; assay type: functional; settings: dose microM <=10
T5 sequence (whole entry): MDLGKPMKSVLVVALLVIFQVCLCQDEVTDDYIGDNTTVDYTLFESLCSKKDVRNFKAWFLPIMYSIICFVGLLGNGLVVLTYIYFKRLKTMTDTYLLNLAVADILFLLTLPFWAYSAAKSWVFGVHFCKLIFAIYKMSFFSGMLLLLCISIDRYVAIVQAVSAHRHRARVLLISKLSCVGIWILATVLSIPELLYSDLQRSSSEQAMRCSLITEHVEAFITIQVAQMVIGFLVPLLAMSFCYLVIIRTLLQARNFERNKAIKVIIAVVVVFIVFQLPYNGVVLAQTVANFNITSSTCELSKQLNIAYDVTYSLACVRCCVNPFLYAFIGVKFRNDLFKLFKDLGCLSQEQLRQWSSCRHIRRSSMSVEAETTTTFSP

[14] = target: Cytochrome P450 3A4 (Homo sapiens, UniProt P08684); assay: Inhibition of CYP3A4 (unknown origin); assay type: ADME
Sequence of Cytochrome P450 3A4 (P08684 whole entry): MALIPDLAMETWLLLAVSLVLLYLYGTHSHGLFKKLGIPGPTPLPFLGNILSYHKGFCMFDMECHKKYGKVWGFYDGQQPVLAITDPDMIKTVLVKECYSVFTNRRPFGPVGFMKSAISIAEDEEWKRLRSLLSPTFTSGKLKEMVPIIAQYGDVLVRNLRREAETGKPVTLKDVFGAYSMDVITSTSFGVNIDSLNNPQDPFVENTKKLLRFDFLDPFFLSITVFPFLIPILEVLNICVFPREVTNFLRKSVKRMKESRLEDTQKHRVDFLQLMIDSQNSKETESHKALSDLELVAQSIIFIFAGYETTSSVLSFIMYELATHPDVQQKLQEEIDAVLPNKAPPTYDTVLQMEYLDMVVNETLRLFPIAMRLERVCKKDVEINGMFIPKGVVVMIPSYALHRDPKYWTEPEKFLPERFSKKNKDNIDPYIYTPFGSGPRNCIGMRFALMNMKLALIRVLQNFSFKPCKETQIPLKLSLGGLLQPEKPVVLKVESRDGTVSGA

[15] = AUC (0 to t) in CD-1 mouse at 30 mg/kg, po or at 3 mg/kg, iv measured after 8 hrs by LC-MS/MS analysis; assay type: ADME, organism-based; set-up: time 8 hrs, dose 30 mg/kg; settings: in vivo
[16] = Oral bioavailability in CD1 mouse at 30 mg/kg measured after 8 hrs by LC-MS/MS analysis; assay type: ADME, organism-based; settings: in vivo
[17] = Cmax in CD-1 mouse at 30 mg/kg, po or at 3 mg/kg, iv by UPLC-MS/MS analysis; assay type: ADME, organism-based; set-up: dose 30 mg/kg; settings: in vivo
[18] = Metabolic stability in rat liver microsomes assessed as parent compound remaining incubated for 10 mins in presence of NADPH; assay type: ADME, Microsome; settings: read-out: Stabilty
[19] = Permeability of the compound at pH 7.4 incubated for 4 hrs by PAMPA; assay type: ADME; settings: read-out: permeability
[20] = Clearance in CD-1 mouse at 30 mg/kg, po or at 3 mg/kg, iv by UPLC-MS/MS analysis; assay type: ADME, organism-based; settings: in vivo
[21] = target: T6, C-X-C chemokine receptor type 1 (Homo sapiens) (UniProt P25024); assay: Antagonist activity at CXCR1 (unknown origin) assessed as inhibition of ligand-induced calcium flux measured upto 10 uM; assay type: functional; settings: dose microM <=10
T6 sequence (whole entry): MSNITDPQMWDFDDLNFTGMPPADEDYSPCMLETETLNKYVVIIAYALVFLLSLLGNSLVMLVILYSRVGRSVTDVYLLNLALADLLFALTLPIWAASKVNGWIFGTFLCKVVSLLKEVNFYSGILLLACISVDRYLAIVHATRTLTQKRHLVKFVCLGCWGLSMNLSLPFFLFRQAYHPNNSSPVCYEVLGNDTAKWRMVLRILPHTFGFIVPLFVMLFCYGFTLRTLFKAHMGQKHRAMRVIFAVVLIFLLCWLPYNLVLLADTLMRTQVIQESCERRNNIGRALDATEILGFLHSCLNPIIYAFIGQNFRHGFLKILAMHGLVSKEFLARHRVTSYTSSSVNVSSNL

[22] = C8h in CD-1 mouse at 30 mg/kg, po or at 3 mg/kg, iv measured up to 8 hrs by UPLC-MS/MS analysis; settings: in vivo
[23] = Metabolic stability in mouse liver microsomes assessed as parent compound remaining incubated for 10 mins in presence of NADPH; assay type: ADME, Microsome; settings: read-out: Stabilty

IC50 [1]: 0.0474 µM
IC50 [2]: > 20 µM
IC50 [3]: > 16.7 µM
remaining at 10 min [4]: 73.6%
Vd [5]: 9.35 L/kg
half-life [6]: 3.5 h
Activity [7]: inactive
Activity [8]: inactive
Activity [9]: inactive
Activity [10]: inactive
Activity [12]: inactive
Activity [13]: inactive
IC50 [14]: > 20 µM
AUC(0-t) at 8 h [15]: 4 µg·h/mL
bioavailability [16]: 24%
Cmax [17]: 0.791 µg/mL
remaining at 10 min [18]: 21%
Papp at 4 h [19]: 235 nm/s
clearance [20]: 1.83 L/h/kg
Activity [21]: inactive
C8h at 8 h [22]: 0.297 µg/mL
remaining at 10 min [23]: 85.8%
SMILES: CN1CCN(Nc2cccc3c2CC(CN(C)[C@H]2CCCc4cccnc42)NC3)CC1 (single isomer, unassigned)
IC50 [11]: 6.8 µM
